Source: patent publication US20100028892A1, “YEAST BASED EXPRESSION OF PROTEASES AND METHODS OF USE” (Burnham Institute for Medical Research, priority 2008, published 2010)

Experiments:
Fas/FADD/Caspase-8 = target: T1, Fas/FADD/Caspase-8 (Homo sapiens, UniProt P25445+Q13158+Q14790); test: yeast Fas/FADD/Caspase-8 HTS assay with counter-screen strains (lacZ, Asc/Caspase-1, empty vector); type: cell-based; details: 384 well, OD620, 2-4 days at 30° C., versus lacZ, Asc/Caspase-1 and empty vector strains
T1 construct: a small amount of each full-length Caspase construct was expressed with a large amount of adaptor protein FADD; HA (C); expressed in transfected cells; host or cells: Saccharomyces cerevisiae EGY48
T1 sequence (Q14790 whole entry): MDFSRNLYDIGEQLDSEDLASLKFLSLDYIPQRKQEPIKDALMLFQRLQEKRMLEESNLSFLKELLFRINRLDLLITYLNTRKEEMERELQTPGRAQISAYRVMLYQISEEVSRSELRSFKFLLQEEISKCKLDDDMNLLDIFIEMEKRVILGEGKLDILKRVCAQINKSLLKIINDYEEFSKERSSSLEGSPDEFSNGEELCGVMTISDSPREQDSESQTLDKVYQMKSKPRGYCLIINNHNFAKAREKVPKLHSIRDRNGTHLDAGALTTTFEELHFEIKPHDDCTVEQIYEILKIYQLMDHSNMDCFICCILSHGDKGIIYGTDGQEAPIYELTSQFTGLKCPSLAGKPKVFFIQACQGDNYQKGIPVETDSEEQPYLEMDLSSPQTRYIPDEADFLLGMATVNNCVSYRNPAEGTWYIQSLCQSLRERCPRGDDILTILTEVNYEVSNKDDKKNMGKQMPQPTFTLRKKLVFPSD
T1 sequence (Q13158 whole entry): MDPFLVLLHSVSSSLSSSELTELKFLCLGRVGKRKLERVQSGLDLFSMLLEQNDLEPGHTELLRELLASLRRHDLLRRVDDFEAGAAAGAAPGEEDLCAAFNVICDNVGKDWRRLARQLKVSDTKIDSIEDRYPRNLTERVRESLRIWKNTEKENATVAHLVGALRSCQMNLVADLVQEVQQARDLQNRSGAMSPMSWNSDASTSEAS
T1 sequence (P25445 26-335): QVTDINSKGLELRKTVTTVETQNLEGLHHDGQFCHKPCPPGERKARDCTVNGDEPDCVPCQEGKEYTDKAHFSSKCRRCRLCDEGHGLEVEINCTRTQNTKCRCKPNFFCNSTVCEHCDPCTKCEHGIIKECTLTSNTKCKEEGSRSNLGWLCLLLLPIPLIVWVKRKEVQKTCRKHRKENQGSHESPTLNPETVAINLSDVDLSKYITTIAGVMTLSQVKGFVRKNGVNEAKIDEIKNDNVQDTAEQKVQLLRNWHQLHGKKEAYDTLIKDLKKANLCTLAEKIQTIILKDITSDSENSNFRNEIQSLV
Procedure: The results of a HTS of a yeast-based NALP1 inflammasome assay are shown in FIG. 12 consisting of FIGS. 12A-G (A) NALP1 yeast screen controls. Yeast cells containing ASC/Nalp1ΔLRR/Caspase1 were plated at 1.88×10^5 cells/well in a 384 well plate in media containing 1% galactose/2% raffinose, with (squares) or without (diamonds) 400 μg/ml X-gal substrate. The plates were incubated for 72 hrs at 30° C. and the plates were read at OD620. (B) Yeast Screen of LOPAC compound library plate 4 for NALP1. Yeast cells containing ASC/NALP1/Caspase1 were plated at 1.88×10^5 cells/well in a 384 well plate in media containing 1% galactose, 2% raffinose, with or without 400 μg/ml X-gal. The plates were incubated for 72 hrs at 30° C. and the plates were read at OD620. The compounds were screened at 100 μM and “hits” were defined by >50% reduction (as shown). (C) Validation of HTS assay for Fas-FADD-Caspase-8 system. Yeast cells containing Fas/FADD/Caspase-8 were cultured in 384 well plates as above with (blue squares) or without (purple diamonds) Xgal substrate, the plates were incubated for 72 hrs at 30° C. and analyzed as above. (D) Example of library screening plate for Fas-FADD-Caspase-8. […] Plates were incubated for 48 hrs at 30° C. and OD620 values recorded. […] Data represent relative fluorescence units (RFU) assessed in the absence or presence of various concentrations of compound (CID-2531). […]

Caspase-8 = Caspase-8 (Homo sapiens, UniProt Q14790); test: in vitro biochemical assay with purified recombinant Caspase-8 and fluorigenic substrate Ac-IETD-AFC; details: purified recombinant Caspase-8, Ac-IETD-AFC, various concentrations of compound
Chain of Caspase-8 (Q14790 217-479): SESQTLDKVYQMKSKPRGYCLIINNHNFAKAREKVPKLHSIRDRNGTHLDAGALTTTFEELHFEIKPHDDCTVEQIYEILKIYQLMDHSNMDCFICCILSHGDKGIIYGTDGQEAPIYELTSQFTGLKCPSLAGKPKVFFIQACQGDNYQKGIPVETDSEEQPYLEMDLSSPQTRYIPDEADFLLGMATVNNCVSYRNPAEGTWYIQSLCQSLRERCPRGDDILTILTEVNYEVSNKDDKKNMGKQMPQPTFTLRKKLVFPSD
Procedure: The results of a HTS of a yeast-based NALP1 inflammasome assay are shown in FIG. 12 consisting of FIGS. 12A-G (A) NALP1 yeast screen controls. Yeast cells containing ASC/Nalp1ΔLRR/Caspase1 were plated at 1.88×10^5 cells/well in a 384 well plate in media containing 1% galactose/2% raffinose, with (squares) or without (diamonds) 400 μg/ml X-gal substrate. The plates were incubated for 72 hrs at 30° C. and the plates were read at OD620. (B) Yeast Screen of LOPAC compound library plate 4 for NALP1. Yeast cells containing ASC/NALP1/Caspase1 were plated at 1.88×10^5 cells/well in a 384 well plate in media containing 1% galactose, 2% raffinose, with or without 400 μg/ml X-gal. The plates were incubated for 72 hrs at 30° C. and the plates were read at OD620. The compounds were screened at 100 μM and “hits” were defined by >50% reduction (as shown). (C) Validation of HTS assay for Fas-FADD-Caspase-8 system. Yeast cells containing Fas/FADD/Caspase-8 were cultured in 384 well plates as above with (blue squares) or without (purple diamonds) Xgal substrate, the plates were incubated for 72 hrs at 30° C. and analyzed as above. (D) Example of library screening plate for Fas-FADD-Caspase-8. […] Plates were incubated for 48 hrs at 30° C. and OD620 values recorded. […] Data represent relative fluorescence units (RFU) assessed in the absence or presence of various concentrations of compound (CID-2531).

Caspases = test: validation of 384 well yeast-based Caspase-dependent lacZ reporter gene assays with pharmacological inhibitors; type: cell-based, human; details: 384 well yeast-based Caspase-dependent reporter gene assay
Description: When converting the yeast-based protease reporter system to HTS assay, conditions from agar plates to liquid medium in microtiter wells must be revised. This revision comprises, utilizing the measured β-galactosidase produced by yeast carrying the Caspase-cleavable reporter proteins, and assaying the colorimetric product (OD620nm) derived from X-gal substrate in 384 well plates, as a measure of the lacZ reporter gene activity. We compared β-galactosidase activity produced in the presence or absence of the broad-spectrum caspase inhibitory compound, zVAD-fmk ([…]-Valinyl-Alaninyl-Aspartyl-fluoromethylketone). Among the variables that were initially interrogated were initial seeding cell density, time of culture, concentration of X-gal substrate, and supporting carbohydrate (raffinose vs mannose). Note that it was determined that it is not advisible to employ glucose in yeast media because it represses the GAL1 promoter used in some plasmids. An example of data obtained using the plural-component system of Fas/FADD/Caspase-8 is presented. All variables tested altered the signal:noise ratio of the assay. […] For the two-component system of ASC/Caspase-1 and for the plural-component system of NALP1ΔLRR/ASC/Caspase-1, the same conditions were optimal, among those tested (not shown). For the Fas/Fadd/Caspase 8, the caspase and adaptor protein (Fadd) were expressed at relatively small amounts (a weak promoter and low copy number plasmid are used) and the upstream activator (Fas) was expressed in a large amount.
The 384 well assay format was further validated, using zVAD-fmk, a peptidyl inhibitor with broad-spectrum activity against animal Caspases. […]
The validation results of a yeast-based Caspase assay using a pharmacological inhibitor of Caspases are shown in FIG. 11 consisting of FIGS. 11A-C (A) Caspase-1, single-component assay. […] For (A-C), relative absorbance at 620 nm was measured (mean ±std dev; n=3-5 independent experiments). […]
Assays were performed in a total volume of […] in triplicate. […] Absorbance at 620 nm was measured 2-3 days after culture at 30° C.

## C[n+]1cc2c3c(ccc2c2ccc4cc5c(cc4c21)OCO5)OCO3 [CID-5154]
Fas/FADD/Caspase-8
  selective inhibition of Fas-FADD-Caspase-8: evidence of selective inhibition

## c1ccc2c(c1)[I+]c1ccccc1-2 [CID-3101]
Fas/FADD/Caspase-8
  selective inhibition of Fas-FADD-Caspase-8: evidence of selective inhibition

## Clc1ccc(C(c2ccc(Cl)cc2)n2cc[n+](CC(OCc3ccc(Cl)cc3Cl)c3ccc(Cl)cc3Cl)c2)cc1 (stereo not shown) [CID-2531]
Caspase-8
  inhibition of Caspase-8 (relative fluorescence units): evidence of inhibition of Caspase-8

## CCCC[C@@H](C=O)NC(=O)[C@H](CC(C)C)NC(=O)OCc1ccccc1 [Calpain inhibitor, calpeptin]
Caspases
  effect on β-galactosidase activity / activation of the lacZ reporter gene: did not suppress activation of the lacZ reporter gene
